Results as given in patent US20240376097A1, “BCL-2 Inhibitor” (BeiGene Ltd., priority 2020, published 2024).
Like-named read-outs stand apart in the source and are kept apart here.

Key:
[1] = test system: BCL-2 G101V knock-in cell line H96 (derive from RS4;11); assay: Bcl 2-G101V Knock-In RS4;11 Cell Proliferation Assay; type: cell-based; conditions: Homo sapiens, RS4;11 Bcl-2 G101V knock-in clone H96, 48 hrs, CellTiter-GLO, read-out: Cellular proliferation assay (IC50, nM) RS4
Outline: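 CellTiter-Glo luminescence after 48 h, 37 °C compound treatment (10 concentrations, maximum 1 μM or 10 μM) gave mean IC50 values. Cells were 50,000 per well of H96, a BCL2-G101V knock-in single clone derived from RS4;11 by Cas9 editing.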

[2] = target: Recombinant human Bcl-2 protein (Homo sapiens (Human), UniProt P10415); assay: Bcl-2 TR-FRET Assay; type: binding
Outline: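 In pH 7.5 phosphate buffer containing NaCl, EDTA, Tween-20 and BSA, 0.05 nM Bcl-2 saw serially diluted compound for 0.5 h before 0.5 nM FITC-Bak peptide was added. Signal ratio at 520/490 nm after 1 h yielded IC50.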

[3] = target: recombinant human Bcl-2-G101V protein (Homo sapiens (Human), UniProt P10415, G101V); assay: Bcl-2-G101V TR-FRET Assay; type: binding; conditions: Bcl-2 G101V mutant, TR-FRET; read-out: Biochemical assay (IC50, nM) Bcl-2 G101V
Outline: (§1)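 Measures how compounds block Bcl-2-G101V engaging its ligand, by TR-FRET with 337 nm excitation and a 490/520 nm emission ratio; dose-response data give IC50 via a four-parameter logistic model.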

[4] = test system: recombinant human Bcl-2-G101V protein; assay: Bcl-2-G101V TR-FRET Assay; type: binding; conditions: ratio of biochemical IC50 Bcl-2 G101V / Bcl-2 WT
Outline: as §1

[5] = target: recombinant human Bcl-2 D103Y protein (Homo sapiens (Human), UniProt P10415, D103Y); assay: Bcl-2-D103Y Biochemical Assay (TR-FRET); type: binding; conditions: for IC50: TR-FRET, FITC labeled Bak peptide; for Ratio of Bcl-2 D103Y/Bcl-2 WT: ratio of IC50; for ratio of Bcl-2 D103Y/Bcl-2 wt, compared with F91b in WO2019210828: comparison in words
Outline: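 Compounds titrated against the Bcl-2 D103Y–ligand interaction; inhibition derived from the TR-FRET emission ratio 490 nm/520 nm after 337 nm excitation. Four-parameter logistic fitting gave IC50.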

[6] = test system: RS4;11 (BCL-2 dependent acute lymphoblastic leukemia cell line); assay: RS4;11 Cell Proliferation Assay; type: cell-based; conditions: Homo sapiens, RS4-11, RS4;11 cells, read-out: Cellular proliferation assay (IC50, nM) RS4
Outline: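 Viability measured via CellTiter-Glo luminescence after a 48 h, 37 °C exposure to compounds (10 points, highest 1 μM). Seeding was 50,000 RS4;11 cells per well in 10% FBS RPMI-1640; IC50 given as mean.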

[7] = Bcl-2 wild type, TR-FRET, read-out: Biochemical assay (IC50, nM) Bcl-2 WT
[8] = wild type Bcl-2, unit inferred, read-out: Bcl-2 WT

Structure (SMILES)	IC50 [1] [nM]	IC50 [2, 7] [nM]	IC50 [2, 8] [nM]	IC50 [3] [nM]	Ratio of Bcl-2 G101V/WT [4]	IC50 [5] [nM]	Ratio of Bcl-2 D103Y/Bcl-2 WT [5]	IC50 [6] [nM]	ratio of Bcl-2 D103Y/Bcl-2 wt, compared with F91b in WO2019210828 [5]
CC(C)c1ccccc1C1CN(Cc2ccccc2)CCN1C1CC2(CCN(c3ccc(C(=O)NS(=O)(=O)c4ccc(NCC5(F)CCOCC5)c([N+](=O)[O-])c4)c(Oc4cnc5[nH]ccc5c4)c3)CC2)C1 (stereo not shown) [Example 27, 2-((1H-pyrrolo[2,3-b]pyridin-5-yl)oxy)-4-(2-(4-benzyl-2-(2-isopropylphenyl)piperazin-1-yl)-7-azaspiro[3.5]nonan-7-yl)-N-((4-(((4-fluorotetrahydro-2H-pyran-4-yl)methyl)amino)-3-nitrophenyl)sulfonyl)benzamide]	7.77	0.27	0.27	2.7	10.0	0.49	1.8	1.05	–
Cc1ccc(CN2CCN(C3CC4(CCN(c5ccc(C(=O)NS(=O)(=O)c6ccc(NC[C@H]7CC[C@](C)(O)CC7)c([N+](=O)[O-])c6)c(Oc6cnc7[nH]ccc7c6)c5)CC4)C3)C(c3ccccc3C(C)C)C2)cc1 (stereo partly shown) [Example 30, 2-((1H-pyrrolo[2,3-b]pyridin-5-yl)oxy)-N-((4-((((1r,4r)-4-hydroxy-4-methylcyclohexyl)methyl)amino)-3-nitrophenyl)sulfonyl)-4-(2-(2-(2-isopropylphenyl)-4-(4-methylbenzyl)piperazin-1-yl)-7-azaspiro[3.5]nonan-7-yl) benzamide]	3.48	0.27	0.27	1.1	4.1	0.42	1.6	0.53	–
CCOc1ccc(CN2CCN(C3CC4(CCN(c5ccc(C(=O)NS(=O)(=O)c6ccc(NC[C@H]7CC[C@](C)(O)CC7)c([N+](=O)[O-])c6)c(Oc6cnc7[nH]ccc7c6)c5)CC4)C3)C(c3ccccc3C(C)C)C2)cc1 (stereo partly shown) [Example 40, 2-((1H-pyrrolo[2,3-b]pyridin-5-yl)oxy)-4-(2-(4-(4-ethoxybenzyl)-2-(2-isopropylphenyl)piperazin-1-yl)-7-azaspiro[3.5]nonan-7-yl)-N-((4-((((1r,4r)-4-hydroxy-4-methylcyclohexyl)methyl)amino)-3-nitrophenyl)sulfonyl)benzamide]	8.4	0.19	0.19	1.3	6.8	0.72	3.8	0.85	–
CC(C)c1ccccc1C1CN(Cc2ccc(C#N)cc2)CCN1C1CC2(CCN(c3ccc(C(=O)NS(=O)(=O)c4ccc(NC[C@H]5CC[C@](C)(O)CC5)c([N+](=O)[O-])c4)c(Oc4cnc5[nH]ccc5c4)c3)CC2)C1 (stereo partly shown) [Example 42, 2-((1H-pyrrolo[2,3-b]pyridin-5-yl)oxy)-4-(2-(4-(4-cyanobenzyl)-2-(2-isopropylphenyl)piperazin-1-yl)-7-azaspiro[3.5]nonan-7-yl)-N-((4-((((1r,4r)-4-hydroxy-4-methylcyclohexyl)methyl)amino)-3-nitrophenyl)sulfonyl)benzamide]	13.5	0.41	0.41	2.5	6.1	1.7	4.1	1.8	–
COc1cccc(CN2CCN(C3CC4(CCN(c5ccc(C(=O)NS(=O)(=O)c6cc7c(c([N+](=O)[O-])c6)N[C@H](C[C@H]6CC[C@H](O)CC6)CO7)c(Oc6cnc7[nH]ccc7c6)c5)CC4)C3)C(c3ccccc3C(C)C)C2)c1 (stereo partly shown) [Example 45]	3.29	0.24	0.24	0.95	4.0	0.54	2.3	0.41	–
COc1ccccc1CN1CCN(C2CC3(CCN(c4ccc(C(=O)NS(=O)(=O)c5ccc(NC[C@H]6CC[C@](C)(O)CC6)c([N+](=O)[O-])c5)c(Oc5cnc6[nH]ccc6c5)c4)CC3)C2)C(c2ccccc2C(C)C)C1 (stereo partly shown) [Example 47, 2-((1H-pyrrolo[2,3-b]pyridin-5-yl)oxy)-N-((4-((((1r,4r)-4-hydroxy-4-methylcyclohexyl)methyl)amino)-3-nitrophenyl)sulfonyl)-4-(2-(2-(2-isopropylphenyl)-4-(2-methoxybenzyl)piperazin-1-yl)-7-azaspiro[3.5]nonan-7-yl) benzamide]	5.33	0.12	0.12	0.53	4.4	0.4	3.3	1	–
CC(C)c1ccccc1C1CN(Cc2ccc(F)cc2F)CCN1C1CC2(CCN(c3ccc(C(=O)NS(=O)(=O)c4ccc(NC[C@H]5CC[C@](C)(O)CC5)c([N+](=O)[O-])c4)c(Oc4cnc5[nH]ccc5c4)c3)CC2)C1 (stereo partly shown) [Example 50]	7.9	0.18	0.18	1.2	6.7	1.2	6.6	0.8	–
CC(C)c1ccccc1C1CN(Cc2ccc3c(c2)CCCO3)CCN1C1CC2(CCN(c3ccc(C(=O)NS(=O)(=O)c4ccc(NC[C@H]5CC[C@](C)(O)CC5)c([N+](=O)[O-])c4)c(Oc4cnc5[nH]ccc5c4)c3)CC2)C1 (stereo partly shown) [Example 53, 2-((1H-pyrrolo[2,3-b]pyridin-5-yl)oxy)-4-(2-(4-(chroman-6-ylmethyl)-2-(2-isopropylphenyl)piperazin-1-yl)-7-azaspiro[3.5]nonan-7-yl)-N-((4-((((1r,4r)-4-hydroxy-4-methylcyclohexyl)methyl)amino)-3-nitrophenyl)sulfonyl)benzamide]	3.1	0.17	0.17	0.6	3.5	0.38	2.2	0.47	–
CC(C)c1ccccc1C1CN(Cc2ccc3sccc3c2)CCN1C1CC2(CCN(c3ccc(C(=O)NS(=O)(=O)c4ccc(NC[C@H]5CC[C@](C)(O)CC5)c([N+](=O)[O-])c4)c(Oc4cnc5[nH]ccc5c4)c3)CC2)C1 (stereo partly shown) [Example 58, 2-((1H-pyrrolo[2,3-b]pyridin-5-yl)oxy)-4-(2-(4-(benzo[b]thiophen-5-ylmethyl)-2-(2-isopropylphenyl)piperazin-1-yl)-7-azaspiro[3.5]nonan-7-yl)-N-((4-((((1r,4r)-4-hydroxy-4-methylcyclohexyl)methyl)amino)-3-nitrophenyl)sulfonyl)benzamide]	7.6	0.62	0.62	2	3.2	1.8	2.9	0.74	significantly lower
CC(C)c1ccccc1C1CN(Cc2cccc3sccc23)CCN1C1CC2(CCN(c3ccc(C(=O)NS(=O)(=O)c4ccc(NC[C@H]5CC[C@](C)(O)CC5)c([N+](=O)[O-])c4)c(Oc4cnc5[nH]ccc5c4)c3)CC2)C1 (stereo partly shown) [Example 59, 2-((1H-pyrrolo[2,3-b]pyridin-5-yl)oxy)-4-(2-(4-(benzo[b]thiophen-4-ylmethyl)-2-(2-isopropylphenyl)piperazin-1-yl)-7-azaspiro[3.5]nonan-7-yl)-N-((4-((((1r,4r)-4-hydroxy-4-methylcyclohexyl)methyl)amino)-3-nitrophenyl)sulfonyl)benzamide]	10.4	0.73	0.73	3	4.1	3.2	4.4	0.8	significantly lower
